According to publication PMC11998009, “Identification of a New FtsZ Inhibitor by Virtual Screening, Mechanistic Insights, and Structure–Activity Relationship Analyses” (ACS Infectious Diseases, 2025):
≈ marks a conversion by molar mass, not a printed value. Read-outs that look alike come from different tables or passages of the source.

How the values were obtained:
[1] = target: T1, S. aureus FtsZ protein (FtsZSa) (Staphylococcus aureus, UniProt P0A031); assay: In vitro FtsZ GTPase activity (PK/LDH coupled assay); type: biochemical; design: Residual GTPase activity: concentration or dose not given beside the values; settings: S. aureus FtsZ protein
T1 construct: made in house; host or cells: Escherichia coli BL21DE3
T1 sequence (P0A031 1-390): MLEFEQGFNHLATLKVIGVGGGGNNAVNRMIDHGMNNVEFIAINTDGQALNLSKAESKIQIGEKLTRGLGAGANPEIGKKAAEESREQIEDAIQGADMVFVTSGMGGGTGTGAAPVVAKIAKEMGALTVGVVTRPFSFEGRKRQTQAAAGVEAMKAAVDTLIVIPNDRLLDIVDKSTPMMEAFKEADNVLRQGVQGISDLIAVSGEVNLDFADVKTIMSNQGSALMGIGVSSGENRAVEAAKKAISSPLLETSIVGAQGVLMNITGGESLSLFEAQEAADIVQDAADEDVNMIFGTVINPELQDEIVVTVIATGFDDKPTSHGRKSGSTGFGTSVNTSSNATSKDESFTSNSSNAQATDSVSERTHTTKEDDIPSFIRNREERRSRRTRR
Method: In vitro FtsZ GTPase activity
FtsZSa and FtsZPa were expressed and purified as previously described.13,14 GTPase activity was assayed at 30°C using a pyruvate kinase–L-lactic dehydrogenase (PK/LDH) spectrophotometric coupled assay, as previously described15 with minor modification. The reaction mixture was first set up to contain 50 mM MES […]
phosphoenolpyruvate, and 4.8 μM of FtsZ. The assay was initiated by the addition of 1 mM GTP. The experiments were performed in triplicate. The inhibitory concentration that reduced the enzymatic activity by half (IC50) was determined using Prism 10. […]

S. aureus ATCC25923 [2] = assay: MIC determination by 2-fold microdilution, resazurin method; type: cell-based, Staphylococcus aureus; settings: S. aureus ATCC25923, single drug; for MIC: Staphylococcus aureus
FtsZSa [3] = target: T2, FtsZSa (Staphylococcus aureus, UniProt P0A031); assay: FtsZSa polymerization, sedimentation assay; settings: sedimentation assay of C11 derivatives
T2 sequence (P0A031 1-390): T1 sequence (P0A031 1-390)

FtsZSa [4] = target: T2, FtsZSa; assay: FtsZSa polymerization, 90° light scattering
S. aureus ATCC25923 [5] = assay: Checkerboard assay of C11 with antibiotics; type: cell-based; settings: antibiotic combined with C11
[6] = test system: S. aureus cystic fibrosis clinical isolates; assay: MIC for CF clinical isolates; type: cell-based
mammalian tubulin = assay: Tubulin polymerization assay, fluorescence based; type: biochemical; settings: 10 μM; DMSO control 3.78
S. aureus = settings: cited from earlier work
[7] = test system: Mycobacterium tuberculosis; design: method as in PMID 21126020; settings: cited from earlier work

In the case of `COC(=O)c1ccc(CSc2ccc(-c3ccc4c(c3)OCO4)nn2)o1` [C1], the “Residual GTPase activity” value [1] is reported as 78.5% and the “MIC S. aureus” value (S. aureus ATCC25923 [2]) is reported as at least 256 µg/mL.
For `CC(O)c1ccc(C2(CNC(=O)c3ccc(C(F)(F)F)nc3)CCCC2)s1` (centres unmarked) [C2], the “Residual GTPase activity” value [1] was 35.5% and the “MIC S. aureus” value (S. aureus ATCC25923 [2]) was at least 256 µg/mL.
For `COc1ccccc1-c1cc(C(=O)NCC(N)=O)[nH]n1` [C5], the “Residual GTPase activity” value [1] was 95.3% and the “MIC S. aureus” value (S. aureus ATCC25923 [2]) was at least 256 µg/mL.
With `NC(=O)c1cc(OC2CN(C(=O)Nc3ccccc3F)C2)ccn1` [C6] the “Residual GTPase activity” value [1] was 92.8% and the “MIC S. aureus” value (S. aureus ATCC25923 [2]) was at least 256 µg/mL.
In the case of `COc1ccc(CC(=O)Nc2cccc(C(N)=O)c2)cc1` [C8], the IC50 [1] is reported as 8.4 µM, the “Residual GTPase activity” value [1] is reported as 11.8% and the “MIC S. aureus” value (S. aureus ATCC25923 [2]) is reported as at least 256 µg/mL.
For `Cc1ccc(-c2nnc(Nc3cccc(O)c3)c3ccccc23)cc1S(N)(=O)=O` [C9], the “Residual GTPase activity” value [1] was 34.3% and the “MIC S. aureus” value (S. aureus ATCC25923 [2]) was at least 256 µg/mL.
With `O=C(Oc1ccc(NC2=NS(=O)(=O)c3ccccc32)cc1)c1ccccc1` [C11.1] the “Activity on FtsZSa polymerization” value (FtsZSa [3]) was “mild activity”, the MIC (S. aureus ATCC25923 [2]) was at least 128 µg/mL and the IC50 (FtsZSa [4]) was 71.7 µM.
Work on `O=S1(=O)C=C(Sc2nnc(-c3ccccc3)o2)c2ccccc21` [C11.2] yielded an MIC (S. aureus ATCC25923 [2]) of 8 µg/mL (≈ 23.4 µM) and an IC50 (FtsZSa [4]) of 23.7 µM.
`O=S1(=O)N=C(Nc2nc3c(s2)CCCC3)c2ccccc21` [C11.3] gave an MIC (S. aureus ATCC25923 [2]) of at least 128 µg/mL.
Work on `CCOc1ccc(NC(=O)CN2C(=O)c3ccccc3S2(=O)=O)cc1` [C11.4] yielded an MIC (S. aureus ATCC25923 [2]) of at least 128 µg/mL and an IC50 (FtsZSa [4]) of 41.9 µM.
In the case of `O=S1(=O)N=C(Nc2nc(-c3ccccc3)cs2)c2ccccc21` [C11.5], the “MIC S. aureus” value (S. aureus ATCC25923 [2]) is reported as at least 128 µg/mL, the MIC (S. aureus ATCC25923 [2]) is reported as at least 128 µg/mL and the IC50 (FtsZSa [4]) is reported as 34.6 µM.
`O=C(c1ccco1)N1CCN(C2=NS(=O)(=O)c3ccccc32)CC1` [C11.6] showed an MIC (S. aureus ATCC25923 [2]) of at least 128 µg/mL.
In the case of `CCc1sc(NC2=NS(=O)(=O)c3ccccc32)nc1-c1ccccc1` [C11.7], the “MIC S. aureus” value (S. aureus ATCC25923 [2]) is reported as 8 µg/mL (≈ 21.7 µM), the MIC (S. aureus ATCC25923 [2]) is reported as 8 µg/mL (≈ 21.7 µM) and the IC50 (FtsZSa [4]) is reported as 29.4 µM.
In the case of `Cc1occc1-c1nnc(SC2=CS(=O)(=O)c3ccccc32)o1` [C11.8], the MIC (S. aureus ATCC25923 [2]) is reported as 128 µg/mL (≈ 370 µM) and the IC50 (FtsZSa [4]) is reported as 41.6 µM.
For `O=S1(=O)N=C(Nc2nnc(SCc3ccccc3Cl)s2)c2ccccc21` [C11.9], the MIC (S. aureus ATCC25923 [2]) was 128 µg/mL (≈ 303 µM).
With `O=C(CSc1nnc(NC2=NS(=O)(=O)c3ccccc32)s1)Nc1ccc(Cl)cc1` [C11.10] the MIC (S. aureus ATCC25923 [2]) was at least 128 µg/mL.
For `Cc1ccc(-c2nnc(SC3=CS(=O)(=O)c4ccccc43)o2)cc1` [C11.11], the MIC (S. aureus ATCC25923 [2]) was at least 128 µg/mL.
With `O=C(CN1C(=O)c2ccccc2S1(=O)=O)Nc1nc(-c2ccccc2)cs1` [C11.12] the MIC (S. aureus ATCC25923 [2]) was at least 128 µg/mL.
With `CC(C)(O/N=C(\C(=O)N[C@@H]1C(=O)N2C(C(=O)[O-])=C(C[n+]3ccccc3)CS[C@H]12)c1csc(N)n1)C(=O)O` [Ceftazidime, reference compound] the MIC (S. aureus ATCC25923 [2]) was 16 µg/mL (≈ 29.3 µM) and the “Effect of the combination with C11” value (S. aureus ATCC25923 [5]) was “synergistic effect”.
With `CC[C@H]1OC(=O)[C@H](C)[C@@H](O[C@H]2C[C@@](C)(OC)[C@@H](O)[C@H](C)O2)[C@H](C)[C@@H](O[C@@H]2O[C@H](C)C[C@H](N(C)C)[C@H]2O)[C@](C)(O)C[C@@H](C)C(=O)[C@H](C)[C@@H](O)[C@]1(C)O` [Erythromycin, reference compound] the MIC (S. aureus ATCC25923 [2]) was 0.5 µg/mL (≈ 0.681 µM) and the “Effect of the combination with C11” value (S. aureus ATCC25923 [5]) was “additive effect”.
With `CC(=O)NC[C@H]1CN(c2ccc(N3CCOCC3)c(F)c2)C(=O)O1` [Linezolid, reference compound] the MIC (S. aureus ATCC25923 [2]) was 2 µg/mL (≈ 5.93 µM) and the “Effect of the combination with C11” value (S. aureus ATCC25923 [5]) was “additive effect”.
`C[C@@H](O)[C@H]1C(=O)N2C(C(=O)O)=C(S[C@@H]3CN[C@H](C(=O)N(C)C)C3)[C@H](C)[C@H]12` [Meropenem, reference compound] showed an MIC ([6]; S. aureus BG8 MRSA, single drug) of 2 µg/mL (≈ 5.22 µM), an MIC ([6]; S. aureus BG10 MRSA, single drug) of 16 µg/mL (≈ 41.7 µM) and an MIC ([6]; Staphylococcus aureus, MRSA, S. aureus BG6 MRSA, read-out: MIC) of 4 µg/mL (≈ 10.4 µM). It also gave an MIC ([6]; Staphylococcus aureus, MRSA, S. aureus BG7 MRSA smv, read-out: MIC) of 2 µg/mL (≈ 5.22 µM), an MIC ([6]; Staphylococcus aureus, MRSA, S. aureus BG8 MRSA, single drug, read-out: MIC) of 2 µg/mL (≈ 5.22 µM) and an MIC ([6]; Staphylococcus aureus, MRSA, S. aureus BG10 MRSA, single drug, read-out: MIC) of 16 µg/mL (≈ 41.7 µM). The MIC ([6]; Staphylococcus aureus, S. aureus BG1, read-out: MIC) was 0.5 µg/mL (≈ 1.3 µM), the MIC ([6]; Staphylococcus aureus, S. aureus BG2, read-out: MIC) was 0.5 µg/mL (≈ 1.3 µM) and the MIC ([6]; Staphylococcus aureus, S. aureus BG3, read-out: MIC) was 0.25 µg/mL (≈ 0.652 µM). For the same compound, the MIC ([6]; Staphylococcus aureus, S. aureus BG4, read-out: MIC) was 0.25 µg/mL (≈ 0.652 µM), the MIC ([6]; Staphylococcus aureus, S. aureus BG5, read-out: MIC) was 0.25 µg/mL (≈ 0.652 µM) and the MIC (S. aureus ATCC25923 [2]) was 0.25 µg/mL (≈ 0.652 µM). The “Effect of the combination with C11” value (S. aureus ATCC25923 [5]) was “synergistic effect”.
For `CC(=O)O[C@H]1C(=O)[C@@]2(C)[C@H]([C@H](OC(=O)c3ccccc3)[C@]3(O)C[C@H](OC(=O)[C@H](O)[C@@H](NC(=O)c4ccccc4)c4ccccc4)C(C)=C1C3(C)C)[C@]1(OC(C)=O)CO[C@@H]1C[C@@H]2O` [Paclitaxel, paclitaxel, reference compound], the “Vmax of tubulin polymerization” value (mammalian tubulin) was 21.45 mOD/min.
With `CO[C@H]1/C=C/O[C@@]2(C)Oc3c(C)c(O)c4c(O)c(c(/C=N/N5CCN(C)CC5)c(O)c4c3C2=O)NC(=O)/C(C)=C\C=C\[C@H](C)[C@H](O)[C@@H](C)[C@@H](O)[C@@H](C)[C@H](OC(C)=O)[C@@H]1C` [Rifampicin, reference compound] the MIC (S. aureus ATCC25923 [2]) was 0.03 µg/mL (≈ 0.0365 µM) and the “Effect of the combination with C11” value (S. aureus ATCC25923 [5]) was “synergistic effect”.
For `NC(=O)c1c(F)ccc(OCc2nc3cc(C(F)(F)F)cnc3s2)c1F` [TX707], the “MIC S. aureus” value (S. aureus; ref 19−22) is listed as 0.25 to 2 µg/mL.
For `CN1CCC(C(=O)NC(=O)c2c(F)ccc(OCc3nc4cc(C(F)(F)F)cnc4s3)c2F)CC1` [TX709], the “MIC S. aureus” value (S. aureus; ref 19−22) is listed as 2 to 4 µg/mL.
For `CN(C)[C@@H]1C(O)=C(C(N)=O)C(=O)[C@@]2(O)C(O)=C3C(=O)c4c(O)cccc4[C@@](C)(O)[C@H]3C[C@@H]12` [Tetracycline, reference compound], the MIC (S. aureus ATCC25923 [2]) was 0.5 µg/mL (≈ 1.13 µM) and the “Effect of the combination with C11” value (S. aureus ATCC25923 [5]) was “additive effect”.
In the case of `O=C(Oc1cc(OC(=O)c2ccc(O)c(Cl)c2)c2ccccc2c1)c1ccc(O)c(Cl)c1` [UCM53], the “MIC S. aureus” value (S. aureus; ref 15−17) is given as 2 to 8 µg/mL.
For Benzimidazole, the “MIC Mtb H3tRv” value [7] is given as 0.39 µg/mL.
